Experimental findings from patent publication US20070049593A1 (priority 2004, published 2007) are described below.

The target of this experiment is T1, HCV polymerase (Hepatitis C virus genotype 1b, UniProt P26663).
T1 construct: a region encoding NS5B (J Virol 1991 March, 65(3), 1105-13, 544 amino acids after deletion of 47 amino acids on the C-terminal); 6xHis (C); made in house; host or cells: Escherichia coli
Description: biochemical. On the set-up: species or system HCV BK strain. In short, it runs like this: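 Recombinant HCV BK-strain NS5B (C-terminal 47 aa deleted, His6-tagged, E. coli), 0.5 μg/ml, run with 5 μg/ml in vitro-transcribed RNA template (polyU/3′X), ATP/GTP/CTP 50 μM, UTP 2 μM plus [3H]UTP, pH 7.5, 25° C, 90 min. TCA-precipitated RNA counted by scintillation; IC50 from activity with vs without compound.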

Counter-ions that a name gives are not always drawn.

T1 sequence (P26663 2420-2963): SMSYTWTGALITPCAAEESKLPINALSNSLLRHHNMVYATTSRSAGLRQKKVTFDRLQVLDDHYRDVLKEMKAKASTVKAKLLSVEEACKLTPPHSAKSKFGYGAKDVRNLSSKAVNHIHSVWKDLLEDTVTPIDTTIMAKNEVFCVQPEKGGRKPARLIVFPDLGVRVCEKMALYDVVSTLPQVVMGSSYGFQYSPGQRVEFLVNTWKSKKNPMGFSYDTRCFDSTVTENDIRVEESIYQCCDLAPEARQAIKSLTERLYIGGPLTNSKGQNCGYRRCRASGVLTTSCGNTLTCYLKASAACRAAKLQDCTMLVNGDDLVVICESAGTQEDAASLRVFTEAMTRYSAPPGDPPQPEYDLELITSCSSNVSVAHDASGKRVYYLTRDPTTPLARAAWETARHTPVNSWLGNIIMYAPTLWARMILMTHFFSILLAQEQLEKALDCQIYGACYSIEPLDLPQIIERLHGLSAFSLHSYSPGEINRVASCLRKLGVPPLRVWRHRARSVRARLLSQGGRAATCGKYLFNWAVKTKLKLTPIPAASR

In general, IC50 refers to the midpoint of a concentration-inhibition curve. Take `Cc1ccc2c(c1)N(CCN1CCCCC1)CCn1c-2c(C2CCCCC2)c2ccc(C(=O)O)c(C)c21` [Example 1-554, 13-cyclohexyl-3,9-dimethyl-5-[2-(piperidin-1-yl)ethyl]-6,7-dihydro-5H-benzo[5,6][1,4]diazepino[7,1-a]indole-10-carboxylic acid dihydrochloride]: the IC50 is under 100 nM.
With `O=C(O)c1ccc2c(C3CCCCC3)c3n(c2c1)CCOc1c(OCCC2CCN(C4CCCC4)CC2)cccc1-3` [Example 2-468, 12-cyclohexyl-4-[2-(1-cyclopentylpiperidin-4-yl)ethoxy]-6,7-dihydro-5-oxa-7a-azadibenzo[a,e]azulene-9-carboxylic acid monohydrochloride], the concentration for half-maximal inhibition (IC50) was under 100 nM.
Then `CCOc1ccc2c(c1)N(C)CCn1c-2c(C2CCCCC2)c2ccc(C(=O)NC3(C(=O)Nc4cccc(/C=C/C(=O)O)c4)CCC3)cc21` [Example 1-616, (E)-3-[3-({1-[(13-cyclohexyl-3-ethoxy-5-methyl-6,7-dihydro-5H-benzo[5,6][1,4]diazepino[7,1-a]indole-10-carbonyl)amino]cyclobutanecarbonyl}amino)phenyl]acrylic acid], with under 100 nM.
As for `CCS(=O)(=O)N1CCN(CCN2CCn3c(c(C4CCCCC4)c4ccc(C(=O)O)cc43)-c3ccccc32)CC1` [Example 1-224, 13-cyclohexyl-5-[2-(4-ethanesulfonylpiperazin-1-yl)ethyl]-6,7-dihydro-5H-benzo[5,6][1,4]diazepino[7,1-a]indole-10-carboxylic acid dihydrochloride], the figure is under 100 nM; as for `O=C(N[C@H](CO)Cc1ccc(O)cc1)c1ccc2c(C3CCCCC3)c3n(c2c1)CCOc1ccccc1-3` [Example 2-217, N—[(S)-1-hydroxymethyl-2-(4-hydroxyphenyl)ethyl]-12-cyclohexyl-6,7-dihydro-5-oxa-7a-azadibenzo[a,e]azulene-9-carboxamide], under 100 nM; as for `COc1ccc2c(c1)OCCn1c-2c(C2CCCCC2)c2ccc(C(=O)NC(C)(C)c3nc4cc(-c5nc(C)no5)ccc4[nH]3)cc21` [Example 2-370, N-(1-methyl-1-[5-(3-methyl-1,2,4-oxadiazol-5-yl)-1H-benzimidazol-2-yl]ethyl}-12-cyclohexyl-3-methoxy-6,7-dihydro-5-oxa-7a-azadibenzo[a,e]azulene-9-carboxamide], under 100 nM.
As for `O=C(O)c1ccc2c(C3CCCCC3)c3n(c2c1)CCN(CCN1CCCOCC1)c1cc(Cl)ccc1-3` [Example 1-169, 3-chloro-13-cyclohexyl-5-[2-(1,4-oxazepan-4-yl)ethyl]-6,7-dihydro-5H-benzo[5,6][1,4]diazepino[7,1-a]indole-10-carboxylic acid monohydrochloride], the figure is under 100 nM; as for `CC(C)COc1ccc2c(c1)N(CCC1CCCN(C(C)C)C1)CCn1c-2c(C2CCCCC2)c2ccc(C(=O)O)cc21` (centres unmarked) [Example 1-385, 13-cyclohexyl-3-isobutoxy-5-[2-(1-isopropylpiperidin-3-yl)ethyl]-6,7-dihydro-5H-benzo[5,6][1,4]diazepino[7,1-a]indole-10-carboxylic acid dihydrochloride], under 100 nM.
On to `COCC[C@@H]1CCCN(C(=O)CN2CCn3c(c(C4CCCCC4)c4ccc(C(=O)O)cc43)-c3ccc(C)cc32)C1` [Example 1-570, 13-cyclohexyl-5-{2-[(S)-3-(2-methoxyethyl)piperidin-1-yl]-2-oxoethyl}-3-methyl-6,7-dihydro-5H-benzo[5,6][1,4]diazepino[7,1-a]indole-10-carboxylic acid], for which the IC50 was under 100 nM.
As for `COc1ccc2c(c1)OCCn1c-2c(C2CCCCC2)c2ccc(C(=O)N[C@@H](Cc3ccc(O)c(Cl)c3)C(=O)O)cc21` [Example 2-365, (S)-3-(3-chloro-4-hydroxyphenyl)-2-[(12-cyclohexyl-3-methoxy-6,7-dihydro-5-oxa-7a-azadibenzo[a,e]azulene-9-carbonyl)amino]propionic acid], the figure is under 100 nM; as for `O=C(O)c1ccc2c(C3CCCCC3)c3n(c2c1)CCOc1cccc(F)c1-3` [Example 2-484, 12-cyclohexyl-1-fluoro-6,7-dihydro-5-oxa-7a-azadibenzo[a,e]azulene-9-carboxylic acid], under 100 nM; as for `COC1CCCN(CCN2CCn3c(c(C4CCCCC4)c4ccc(C(=O)O)cc43)-c3ccc(C)cc32)CC1` (centres unmarked) [Example 1-525, 13-cyclohexyl-5-[2-(4-methoxyazepan-1-yl)ethyl]-3-methyl-6,7-dihydro-5H-benzo[5,6][1,4]diazepino[7,1-a]indole-10-carboxylic acid dihydrochloride], under 100 nM.
Turning to `CS(=O)(=O)c1ccc(N2CCOCC2)c(COc2ccc3c(c2)OCCn2c-3c(C3CCCCC3)c3ccc(C(=O)O)nc32)c1` [Example 7-5, 12-cyclohexyl-3-[5-methanesulfonyl-2-(morpholin-4-yl)benzyloxy]-6,7-dihydro-5-oxa-7a,8-diazadibenzo[a,e]azulene-9-carboxylic acid monohydrochloride], the IC50 was under 100 nM.
As for `CCC1CN(CCN2CCn3c(c(C4CCCCC4)c4ccc(C(=O)O)cc43)-c3ccc(C)cc32)CCO1` (centres unmarked) [Example 1-291, 13-cyclohexyl-5-[2-(2-ethylmorpholin-4-yl)ethyl]-3-methyl-6,7-dihydro-5H-benzo[5,6][1,4]diazepino[7,1-a]indole-10-carboxylic acid dihydrochloride], the figure is under 100 nM; as for `CC(C)(NC(=O)c1ccc2c(C3CCCCC3)c3n(c2c1)CCOc1ccccc1-3)C(=O)N1CCC(NS(C)(=O)=O)CC1` [Example 2-335, N-[2-(4-methanesulfonylaminopiperidin-1-yl)-1,1-dimethyl-2-oxoethyl]-12-cyclohexyl-6,7-dihydro-5-oxa-7a-azadibenzo[a,e]azulene-9-carboxamide], under 100 nM; as for `O=C(O)c1ccc2c(C3CCCCC3)c3n(c2c1)CCN(CCC1CCNCC1)c1cc(Cl)ccc1-3` [Example 1-244, 3-chloro-13-cyclohexyl-5-[2-(piperidin-4-yl)ethyl]-6,7-dihydro-5H-benzo[5,6][1,4]diazepino[7,1-a]indole-10-carboxylic acid dihydrochloride], under 100 nM.
As for `CCCN(C)CCN1CCn2c(c(C3CCCCC3)c3ccc(C(=O)O)cc32)-c2ccccc21` [Example 1-198, 13-cyclohexyl-5-[2-(N-methyl-N-propylamino)ethyl]-6,7-dihydro-5H-benzo[5,6][1,4]diazepino[7,1-a]indole-10-carboxylic acid dihydrochloride], the figure is under 100 nM; as for `Cc1cccc2c1N(CCN1CCCCC1)CCn1c-2c(C2CCCCC2)c2ccc(C(=O)O)cc21` [Example 1-206, 13-cyclohexyl-4-methyl-5-[2-(piperidin-1-yl)ethyl]-6,7-dihydro-5H-benzo[5,6][1,4]diazepino[7,1-a]indole-10-carboxylic acid dihydrochloride], under 100 nM; as for `O=C(Nc1ccc(OCc2ccccc2)cc1)c1ccc2c(C3CCCCC3)c3n(c2c1)CCOc1ccccc1-3` [Example 2-179, N-(4-benzyloxyphenyl)-12-cyclohexyl-6,7-dihydro-5-oxa-7a-azadibenzo[a,e]azulene-9-carboxamide], 100 to 1000 nM.
Then `COCCn1c(C(C)(C)NC(=O)c2ccc3c(C4CCCCC4)c4n(c3c2)CCOc2cc(OC)ccc2-4)nc2ccccc21` [Example 2-434, N-{1-[1-(2-methoxyethyl)-1H-benzimidazol-2-yl]-1-methylethyl}-12-cyclohexyl-3-methoxy-6,7-dihydro-5-oxa-7a-azadibenzo[a,e]azulene-9-carboxamide], with under 100 nM.
`Cc1ccc2c(c1)N(CCN1CCOCC(C)C1)CCn1c-2c(C2CCCCC2)c2ccc(C(=O)O)cc21` (centres unmarked) [Example 1-532, 13-cyclohexyl-3-methyl-5-[2-(6-methyl-1,4-oxazepan-4-yl)ethyl]-6,7-dihydro-5H-benzo[5,6][1,4]diazepino[7,1-a]indole-10-carboxylic acid dihydrochloride] came in with an IC50 of under 100 nM.
Then `CC(C)(COc1ccc(N)cc1)NC(=O)c1ccc2c(C3CCCCC3)c3n(c2c1)CCOc1ccccc1-3` [Example 2-224, N-[2-(4-aminophenoxy)-1,1-dimethylethyl]-12-cyclohexyl-6,7-dihydro-5-oxa-7a-azadibenzo[a,e]azulene-9-carboxamide], with under 100 nM; and `COC(=O)N1CCC(CCN2CCn3c(c(C4CCCCC4)c4ccc(C(=O)O)cc43)-c3ccc(Cl)cc32)CC1` [Example 1-580, 3-chloro-13-cyclohexyl-5-[2-(1-methoxycarbonylpiperidin-4-yl)ethyl]-6,7-dihydro-5H-benzo[5,6][1,4]diazepino[7,1-a]indole-10-carboxylic acid], with under 100 nM; and `COC(=O)[C@@H](Cc1ccc(O)cc1)NC(=O)c1ccc2c(C3CCCCC3)c3n(c2c1)CCOc1ccccc1-3` [Example 2-238, methyl (R)-2-[(12-cyclohexyl-6,7-dihydro-5-oxa-7a-azadibenzo[a,e]azulene-9-carbonyl)amino]-3-(4-hydroxyphenyl)propionate], with under 100 nM.
As for `CC[C@@H]1CCCN(CCN2CCn3c(c(C4CCCCC4)c4ccc(C(=O)O)cc43)-c3ccc(Cl)cc32)C1` [Example 1-336, 3-chloro-13-cyclohexyl-5-[2-((R)-3-ethylpiperidin-1-yl)ethyl]-6,7-dihydro-5H-benzo[5,6][1,4]diazepino[7,1-a]indole-10-carboxylic acid dihydrochloride], the figure is under 100 nM.
With `CC(C)OC1CCCN(CCN2CCn3c(c(C4CCCCC4)c4ccc(C(=O)O)cc43)-c3ccccc32)C1` (centres unmarked) [Example 1-395, 13-cyclohexyl-5-[2-(3-isopropoxypiperidin-1-yl)ethyl]-6,7-dihydro-5H-benzo[5,6][1,4]diazepino[7,1-a]indole-10-carboxylic acid monohydrochloride], the IC50 was under 100 nM.
